{"source": "patent US11167015B2", "about": "“Arginine and its use as a T cell modulator” (INSTITUTE FOR RESEARCH IN BIOMEDICINE, priority 2016, dated 2021)", "key": {"Naïve CD8+ OT-I T cells": {"tested_on": "Naïve CD8+ OT-I T cells", "assay": "Tcm-like phenotype and IFN-γ of OT-I T cells after in vitro priming", "format": "cell-based, mouse", "from_the_text": "FIG. 7. CD8+ T cells with increased L-arginine levels display improved anti-tumor activity in vivo. (A) Survival of activated mouse CD8+OT-I T cells (4 d) after IL-2 withdrawal. Data points represent the difference between the percentage of living T cells from cultures performed in L-Arg medium or Ctrl medium; n=11. (B) CD90.1+CD45.1/2+ and CD90.1+CD45.1+ naïve CD8+ OT-I T cells were activated for 4 days in Ctrl medium or L-Arg medium, respectively. Equal numbers of the congenically marked activated OT-I cells were co-transferred into Cd3e−/− mouse and the number of living T cells was measured in pooled spleen and lymph nodes at the indicated time points; n=3 at each time point. (C) Naïve CD8+ OT-I T cells were activated with CD3+CD28 antibodies in L-Arg medium or control (Ctrl) medium. Five days after activation, the percentage of Tcm-like cells (CD44hi, CD62L+) was measured by flow cytometry; n=15. (D) Naïve OT-I CD8+ T cells were activated in L-Arg medium or Ctrl medium and IFN-γ was quantified in culture supernatants after 5 days; n=15. (E) Same as in (D) but T cells were re-activated on day 5 day with PMA/Ionomycin; n=15. (F, G) B16.OVA melanoma cells were injected into C57BL/6 mice and tumors were allowed to grow for 10 days. Naïve OT-I CD8+ T cells were activated in vitro in L-Arg medium or Ctrl medium and injected into tumor bearing mice. Tumor burden (F) and survival (G) were assessed over time. Data are representative of three independent experiments, each performed with 7-9 mice per group. (H) B16.OVA melanoma cells were injected into C57BL/6 mice and tumors were allowed to grow for 6 clays. At day 6, naïve CD8+ OT-I T cells were transferred into tumor bearing mice and at day 7 mice were immunized with OVA peptide. Starting one day before the T cell transfer, PBS or L-arginine (1.5 mg/g body weight) was orally administered daily; n=19 from three independent experiments. Bars represent the s.e.m. *p<0.05, **p<0.01, ***p<0.001, ****p<0.0001 (Student's t-test). In (G) *p<0.05 as determined by log-rank test comparison between curves. […]"}, "human naïve CD4+ T cells": {"tested_on": "human naïve CD4+ T cells", "assay": "CCR7 expression by flow cytometry", "format": "cell-based", "conditions": "day 10 after activation, L-arginine supplemented vs control cultures", "description": "FIG. 4. L-arginine limits human T cell differentiation and endows cells with a high survival capacity in vitro. (A, B) Human naïve CD4^+ T cells were activated in L-Arg medium or Ctrl medium in the presence of 10 ng/ml IL-12. IFN-γ was quantified in culture supernatants after 5 days (A) or after re-activation for 5 h with PMA/Ionomycin (B); n=9 from three donors. (C) Naïve CD4^+ T cells were labeled with CellTrace Violet (CTV) and activated in L-Arg medium or Ctrl medium. On day 10, proliferating CTV^lo T cells were stained with an antibody to CCR7 and analyzed by flow cytometry; n=15 from three donors. (D) Naïve CD4^+ T cells were activated for 5 days in L-Arg or Ctrl medium in the presence of exogenous IL-2, washed extensively and cultured in Ctrl medium in the absence of IL-2. Shown is the percentage of living T cells as determined by Annexin V staining at different time points after IL-2 withdrawal. One representative experiment out of three performed. (E) Same experiment as in (D). Shown is the difference of living activated CD4^+ and CD8^+ T cells 5 days after withdrawal of IL-2; n=46, from sixteen donors (CD4^+ T cells); n=13, from four donors (CD8^+ T cells). […] (K) Effect of norNOHA and BEC on proliferation of CTV-labeled naïve T cells measured 72 h after activation. *p<0.05, **p<0.01, ***p<0.001, ****p<0.0001 (Student's t-test)."}}, "data": [{"smiles": "N=C(N)NCCC[C@H](N)C(=O)O", "note": "[L-arginine]", "values": [{"measurement": "Tcm-like state (CD44hi, CD62L+)", "setting": "Naïve CD8+ OT-I T cells; five days after activation in L-Arg medium", "value": "maintained a Tcm-like state"}, {"measurement": "IFN-γ production upon reactivation", "setting": "Naïve CD8+ OT-I T cells; re-activated on day 5 with PMA/Ionomycin", "value": "even more IFN-γ than controls"}, {"measurement": "IFN-γ secretion after in vitro priming", "setting": "Naïve CD8+ OT-I T cells; supernatants after 5 days", "value": "secreted less IFN-γ than controls"}, {"measurement": "fraction of proliferating CCR7+ T cells", "setting": "human naïve CD4+ T cells", "value": "higher fraction"}]}]}
